Consider one substance from paper PMC4533898 (Biochemistry, 2015).

Assay [1] addresses Progesterone receptor membrane component 1 (hPGRMC1) (Homo sapiens, UniProt O00264, Y164F). Nature of the assay: UV-vis spectroscopy. Format: binding.
Assay [2] addresses Progesterone receptor membrane component 1 (hPGRMC1) (Homo sapiens, UniProt O00264, Y164H). Nature of the assay: UV-vis. Type of assay: binding.

Chain of Progesterone receptor membrane component 1 (hPGRMC1) (Homo sapiens, UniProt O00264, Y164H) (O00264 71-195 Y164H): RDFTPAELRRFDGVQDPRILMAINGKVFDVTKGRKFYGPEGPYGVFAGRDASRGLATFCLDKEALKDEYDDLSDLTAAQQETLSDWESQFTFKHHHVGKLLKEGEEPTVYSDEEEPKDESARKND
Chain of Progesterone receptor membrane component 1 (hPGRMC1) (Homo sapiens, UniProt O00264, Y164F) (O00264 71-195 Y164F): as the sequence (O00264 71-195 Y164H) above, with H94F counted along it

Regarding heme, the “% of WT heme binding” value in assay [1] is on record as ~ 15 % of WT heme binding; in assay [2], ~ 90 % of WT heme binding.
